PubChem BioAssay (NCI)
Several values for one entry are separate records, joined by “and”; a condition that tells them apart may be missing. Equal entries are not always repeated.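 How tested: cells in 96-well plates exposed to compound for 48 hours at five concentrations. GI50 is the concentration that inhibits growth by half. The concentration for full growth arrest is given as TGI.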

The compounds below were run on UACC-62 melanoma (assay: inhibition of tumour cell growth, NCI panel, 48 h).

Row | SMILES | GI50 | TGI
1 | N.N.N.N.O=C([O-])CCl.O=C([O-])CCl.[Co+3].[O-][Cl+3]([O-])([O-])[O-] | > 100 µM | > 100 µM
2 | COC(=O)C1=C(OC(=O)/C(=C/c2ccc(Cl)cc2)c2ccc(Cl)cc2)C(C(=O)OC)[C@@]2(O)[C@@H](C(=O)OC)[C@H](C)C[C@@H]1[C@@H]2C(=O)OC (some centres undefined) | – | > 100 µM
3 | CC(C)CCC1CC2C(=O)N(c3ccccc3)C(=O)C2c2[nH]c3ccccc3c21 (centres undefined) | – | 20.9 µM
4 | CCCCCCCCCCCCCC(=O)OCC(C[As](=O)(O)O)OC(=O)CCCCCCCCCCCCC (centres undefined) | – | > 100 µM
5 | O=C(CCN(C(=O)O)S(=O)(=O)c1ccc(NC(=O)c2ccccc2)cc1)Nc1ccccc1 | – | 97.5 µM
6 | N#CN/C(N)=N/CO | – | > 100 µM

These compounds were tested on SR leukemia (assay: inhibition of tumour cell growth, NCI panel, 48 h).

Row | SMILES | TGI
7 | COC(=O)C1=C(OC(=O)/C(=C/c2ccc(Cl)cc2)c2ccc(Cl)cc2)C(C(=O)OC)[C@@]2(O)[C@@H](C(=O)OC)[C@H](C)C[C@@H]1[C@@H]2C(=O)OC (some centres undefined) | > 100 µM
8 | CC(C)CCC1CC2C(=O)N(c3ccccc3)C(=O)C2c2[nH]c3ccccc3c21 (centres undefined) | 23.9 µM
9 | CCCCCCCCCCCCCC(=O)OCC(C[As](=O)(O)O)OC(=O)CCCCCCCCCCCCC (centres undefined) | > 100 µM
10 | O=C(CCN(C(=O)O)S(=O)(=O)c1ccc(NC(=O)c2ccccc2)cc1)Nc1ccccc1 | > 100 µM
11 | N#CN/C(N)=N/CO | 72.4 µM

Each compound was assayed on DMS 114 small cell lung (assay: inhibition of tumour cell growth, NCI panel, 48 h).

Row | SMILES | TGI | GI50
12 | CC(C)CCC1CC2C(=O)N(c3ccccc3)C(=O)C2c2[nH]c3ccccc3c21 (centres undefined) | 2.81 µM | –
13 | CCCCCCCCCCCCCC(=O)OCC(C[As](=O)(O)O)OC(=O)CCCCCCCCCCCCC (centres undefined) | > 100 µM | –
14 | CC(C)SC1CC2C(CC1(C)O)C2(C)C (centres undefined) | > 100 µM | 89.7 µM and 18.7 µM
15 | O=C(CCN(C(=O)O)S(=O)(=O)c1ccc(NC(=O)c2ccccc2)cc1)Nc1ccccc1 | > 68.5 µM | –
16 | N#CN/C(N)=N/CO | > 60.9 µM | –

What follows are compounds tested on XF 498 CNS (assay: inhibition of tumour cell growth, NCI panel, 48 h).

Row | SMILES | TGI
17 | CC(C)CCC1CC2C(=O)N(c3ccccc3)C(=O)C2c2[nH]c3ccccc3c21 (centres undefined) | 6.08 µM
18 | CCCCCCCCCCCCCC(=O)OCC(C[As](=O)(O)O)OC(=O)CCCCCCCCCCCCC (centres undefined) | > 100 µM
19 | O=C(CCN(C(=O)O)S(=O)(=O)c1ccc(NC(=O)c2ccccc2)cc1)Nc1ccccc1 | > 100 µM
20 | N#CN/C(N)=N/CO | > 100 µM

The compounds below were run on TK-10 renal (assay: inhibition of tumour cell growth, NCI panel, 48 h).

Row | SMILES | GI50 | TGI
21 | N.N.N.N.O=C([O-])CCl.O=C([O-])CCl.[Co+3].[O-][Cl+3]([O-])([O-])[O-] | > 100 µM | > 100 µM
22 | COC(=O)C1=C(OC(=O)/C(=C/c2ccc(Cl)cc2)c2ccc(Cl)cc2)C(C(=O)OC)[C@@]2(O)[C@@H](C(=O)OC)[C@H](C)C[C@@H]1[C@@H]2C(=O)OC (some centres undefined) | – | > 100 µM
23 | CC(C)CCC1CC2C(=O)N(c3ccccc3)C(=O)C2c2[nH]c3ccccc3c21 (centres undefined) | – | 16.1 µM
24 | CCCCCCCCCCCCCC(=O)OCC(C[As](=O)(O)O)OC(=O)CCCCCCCCCCCCC (centres undefined) | – | > 100 µM
25 | O=C(CCN(C(=O)O)S(=O)(=O)c1ccc(NC(=O)c2ccccc2)cc1)Nc1ccccc1 | – | > 100 µM
26 | N#CN/C(N)=N/CO | – | > 100 µM

These compounds were tested on HOP-92 NSCLC (assay: inhibition of tumour cell growth, NCI panel, 48 h).

Row | SMILES | GI50 | TGI
27 | N.N.N.N.O=C([O-])CCl.O=C([O-])CCl.[Co+3].[O-][Cl+3]([O-])([O-])[O-] | 86.5 µM | > 100 µM
28 | COC(=O)C1=C(OC(=O)/C(=C/c2ccc(Cl)cc2)c2ccc(Cl)cc2)C(C(=O)OC)[C@@]2(O)[C@@H](C(=O)OC)[C@H](C)C[C@@H]1[C@@H]2C(=O)OC (some centres undefined) | – | > 86.9 µM
29 | CCCCCCCCCCCCCC(=O)OCC(C[As](=O)(O)O)OC(=O)CCCCCCCCCCCCC (centres undefined) | – | > 100 µM
30 | O=C(CCN(C(=O)O)S(=O)(=O)c1ccc(NC(=O)c2ccccc2)cc1)Nc1ccccc1 | – | > 100 µM
31 | N#CN/C(N)=N/CO | – | > 100 µM

What follows are compounds tested on RPMI-8226 leukemia (assay: inhibition of tumour cell growth, NCI panel, 48 h).

Row | SMILES | GI50 | TGI
32 | N.N.N.N.O=C([O-])CCl.O=C([O-])CCl.[Co+3].[O-][Cl+3]([O-])([O-])[O-] | > 100 µM | > 100 µM
33 | COC(=O)C1=C(OC(=O)/C(=C/c2ccc(Cl)cc2)c2ccc(Cl)cc2)C(C(=O)OC)[C@@]2(O)[C@@H](C(=O)OC)[C@H](C)C[C@@H]1[C@@H]2C(=O)OC (some centres undefined) | – | > 100 µM
34 | CC(C)CCC1CC2C(=O)N(c3ccccc3)C(=O)C2c2[nH]c3ccccc3c21 (centres undefined) | – | 11.8 µM
35 | CCCCCCCCCCCCCC(=O)OCC(C[As](=O)(O)O)OC(=O)CCCCCCCCCCCCC (centres undefined) | – | > 100 µM
36 | O=C(CCN(C(=O)O)S(=O)(=O)c1ccc(NC(=O)c2ccccc2)cc1)Nc1ccccc1 | – | > 82.4 µM
37 | N#CN/C(N)=N/CO | – | > 76.2 µM

What follows are compounds tested on ACHN renal (assay: inhibition of tumour cell growth, NCI panel, 48 h).

Row | SMILES | GI50 | TGI
38 | N.N.N.N.O=C([O-])CCl.O=C([O-])CCl.[Co+3].[O-][Cl+3]([O-])([O-])[O-] | > 100 µM | > 100 µM
39 | COC(=O)C1=C(OC(=O)/C(=C/c2ccc(Cl)cc2)c2ccc(Cl)cc2)C(C(=O)OC)[C@@]2(O)[C@@H](C(=O)OC)[C@H](C)C[C@@H]1[C@@H]2C(=O)OC (some centres undefined) | – | > 100 µM
40 | CC(C)CCC1CC2C(=O)N(c3ccccc3)C(=O)C2c2[nH]c3ccccc3c21 (centres undefined) | – | 21.5 µM
41 | CCCCCCCCCCCCCC(=O)OCC(C[As](=O)(O)O)OC(=O)CCCCCCCCCCCCC (centres undefined) | – | > 100 µM
42 | O=C(CCN(C(=O)O)S(=O)(=O)c1ccc(NC(=O)c2ccccc2)cc1)Nc1ccccc1 | – | > 100 µM
43 | N#CN/C(N)=N/CO | – | > 100 µM
